Patent publication US6737383B1, “Herbicidal oxadiazolidines” (priority 1999, dated 2004)

Key:
[1] = tested on: bedstraw; experiment: Test B pre/postemergence bedstraw; assay type: in vivo, Galium aparine
Procedure, shortened: (§1)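 Response is a visual 0-to-10 score relative to untreated plants, where 0 means no effect and 10 means complete control, taken twelve to sixteen days after application. Treatments went onto soil at planting and onto foliage of 1- to 4-leaf plants, using a surfactant-containing non-phytotoxic solvent.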

[2] = tested on: corn; experiment: Test B pre/postemergence corn; assay type: in vivo, Zea mays
Procedure, shortened: as §1

[3] = tested on: soybean; experiment: Test B pre/postemergence soybean; assay type: in vivo, Glycine max; details: for Plant response rating, Soybean: scale of 0 to 10 where 0 is no effect and 10 is complete control
Procedure, shortened: as §1

[4] = tested on: crabgrass; experiment: Test B pre/postemergence crabgrass; assay type: in vivo, Digitaria sanguinalis
Procedure, shortened: as §1

[5] = tested on: velvetleaf; experiment: Test B pre/postemergence velvetleaf; assay type: in vivo, Abutilon theophrasti; details: for Plant response rating, Velvetleaf: scale of 0 to 10 where 0 is no effect and 10 is complete control
Procedure, shortened: as §1

[6] = tested on: pigweed; experiment: Test B pre/postemergence pigweed; assay type: in vivo, Amaranthus retroflexus; details: for Plant response rating, Redroot pigweed: scale of 0 to 10 where 0 is no effect and 10 is complete control
Procedure, shortened: as §1

[7] = tested on: giant foxtail; experiment: Test B pre/postemergence giant foxtail; assay type: in vivo, Setaria faberii; details: for Plant response rating, Giant foxtail: scale of 0 to 10 where 0 is no effect and 10 is complete control
Procedure, shortened: as §1

[8] = tested on: purple nutsedge; experiment: Test B pre/postemergence purple nutsedge; assay type: in vivo, Cyperus rotundus; details: for Plant response rating, Nutsedge: scale of 0 to 10 where 0 is no effect and 10 is complete control
Procedure, shortened: as §1

[9] = tested on: surinam grass; experiment: Test B pre/postemergence surinam grass; assay type: in vivo, Brachiaria decumbens
Procedure, shortened: as §1

[10] = tested on: wild oat; experiment: Test B pre/postemergence wild oat; assay type: in vivo, Avena fatua; details: for Plant response rating, Wild oats: scale of 0 to 10 where 0 is no effect and 10 is complete control
Procedure, shortened: as §1

[11] = tested on: morningglory; experiment: Test B pre/postemergence morningglory; assay type: in vivo, Ipomoea hederacea; details: for Plant response rating, Morningglory: scale of 0 to 10 where 0 is no effect and 10 is complete control
Procedure, shortened: as §1

[12] = tested on: rape; experiment: Test B pre/postemergence rape; assay type: in vivo, Brassica napus; details: for Plant response rating, Rape: scale of 0 to 10 where 0 is no effect and 10 is complete control
Procedure, shortened: as §1

[13] = tested on: cocklebur; experiment: Test B pre/postemergence cocklebur; assay type: in vivo, Xanthium strumarium
Procedure, shortened: as §1

[14] = tested on: wheat; experiment: Test B pre/postemergence wheat; assay type: in vivo, Triticum aestivum; details: for Plant response rating, Wheat: scale of 0 to 10 where 0 is no effect and 10 is complete control
Procedure, shortened: as §1

[15] = tested on: blackgrass; experiment: Test B pre/postemergence blackgrass; assay type: in vivo, Alopecurus myosuroides
Procedure, shortened: as §1

[16] = Postemergence, Rate 250 g/ha, scale 0 to 10
[17] = Preemergence, Rate 250 g/ha, scale 0 to 10, 0 is no effect, 10 is complete control
[18] = Preemergence, Rate 500 g/ha, scale 0 to 10, 0 is no effect, 10 is complete control
[19] = Rate 62 g/ha, Postemergence, scale 0 to 10 (0 no effect, 10 complete control)
[20] = Rate 125 g/ha, Postemergence, scale 0 to 10, 0 is no effect, 10 is complete control
[21] = Postemergence, Rate 500 g/ha, scale of 0 to 10 where 0 is no effect and 10 is complete control
[22] = Preemergence, Rate 62 g/ha, scale of 0 to 10 where 0 is no effect and 10 is complete control
[23] = Preemergence, Rate 125 g/ha, scale of 0 to 10 where 0 is no effect and 10 is complete control

## CC(C)N(C(=O)n1oc(=O)n(C(C)C(=O)N(C)C)c1=O)c1ccccc1 (stereo not drawn) [Compound 479]
[1]; [16]
  Bedstraw plant response rating: 0
[1]; [17]
  Bedstraw plant response rating: 0
[1]; [18]
  Bedstraw plant response rating: 0
[1]; [19]
  Bedstraw plant response rating: 0
[1]; [20]
  Bedstraw plant response rating: 0
[2]; [16]
  Corn plant response rating: 0
[2]; [21]
  Corn plant response rating: 4
[2]; [22]
  Plant response rating, Corn: 0
[2]; [23]
  Plant response rating, Corn: 0
[2]; [17]
  Corn plant response rating: 0
[2]; [18]
  Corn plant response rating: 3
[2]; [19]
  Corn plant response rating: 0
[2]; [20]
  Corn plant response rating: 0
[3]; [16]
  Soybean plant response rating: 3
[3]; Preemergence, Rate 62 g/ha
  Plant response rating, Soybean: 0
[3]; Preemergence, Rate 125 g/ha
  Plant response rating, Soybean: 0
[3]; [17]
  Soybean plant response rating: 0
[3]; [18]
  Soybean plant response rating: 0
[3]; [19]
  Soybean plant response rating: 1
[3]; [20]
  Soybean plant response rating: 1
[4]; [16]
  Crabgrass plant response rating: 6
[4]; [21]
  Crabgrass plant response rating: 9
[4]; [23]
  Plant response rating, Crabgrass: 8
[4]; [17]
  Crabgrass plant response rating: 9
[4]; [18]
  Crabgrass plant response rating: 10
[4]; [19]
  Crabgrass plant response rating: 2
[4]; [20]
  Crabgrass plant response rating: 3
[5]; [16]
  Velvetleaf plant response rating: 0
[5]; Preemergence, Rate 62 g/ha
  Plant response rating, Velvetleaf: 0
[5]; Preemergence, Rate 125 g/ha
  Plant response rating, Velvetleaf: 0
[5]; [17]
  Velvetleaf plant response rating: 1
[5]; [18]
  Velvetleaf plant response rating: 5
[5]; [19]
  Velvetleaf plant response rating: 0
[5]; [20]
  Velvetleaf plant response rating: 0
[6]; [16]
  Redroot pigweed plant response rating: 2
[6]; Preemergence, Rate 62 g/ha
  Plant response rating, Redroot pigweed: 0
[6]; Preemergence, Rate 125 g/ha
  Plant response rating, Redroot pigweed: 3
[6]; [17]
  Redroot pigweed plant response rating: 6
[6]; [18]
  Redroot pigweed plant response rating: 6
[6]; [19]
  Redroot pigweed plant response rating: 0
[6]; [20]
  Redroot pigweed plant response rating: 2
[7]; [16]
  Giant foxtail plant response rating: 6
[7]; Preemergence, Rate 62 g/ha
  Plant response rating, Giant foxtail: 7
[7]; Preemergence, Rate 125 g/ha
  Plant response rating, Giant foxtail: 9
[7]; [17]
  Giant foxtail plant response rating: 10
[7]; [18]
  Giant foxtail plant response rating: 10
[7]; [19]
  Giant foxtail plant response rating: 0
[7]; [20]
  Giant foxtail plant response rating: 3
[8]; [16]
  Nutsedge plant response rating: 0
[8]; Preemergence, Rate 62 g/ha
  Plant response rating, Nutsedge: 0
[8]; Preemergence, Rate 125 g/ha
  Plant response rating, Nutsedge: 0
[8]; [17]
  Nutsedge plant response rating: 0
[8]; [19]
  Nutsedge plant response rating: 0
[8]; [20]
  Nutsedge plant response rating: 0
[9]; Postemergence, Rate 250 g/ha, scale 0 to 10, 0 no effect, 10 complete control
  B. signalgrass plant response rating: 3
[9]; [21]
  B. signalgrass plant response rating: 7
[9]; [22]
  Plant response rating, B. signalgrass: 0
[9]; [23]
  Plant response rating, B. signalgrass: 5
[9]; [17]
  B. signalgrass plant response rating: 6
[9]; [18]
  B. signalgrass plant response rating: 9
[9]; [19]
  B. signalgrass plant response rating: 0
[9]; [20]
  B. signalgrass plant response rating: 2
[10]; [16]
  Wild oats plant response rating: 0
[10]; Preemergence, Rate 62 g/ha
  Plant response rating, Wild oats: 0
[10]; Preemergence, Rate 125 g/ha
  Plant response rating, Wild oats: 4
[10]; [17]
  Wild oats plant response rating: 5
[10]; [18]
  Wild oats plant response rating: 7
[10]; [19]
  Wild oats plant response rating: 0
[10]; [20]
  Wild oats plant response rating: 0
[11]; [16]
  Morningglory plant response rating: 10
[11]; Preemergence, Rate 62 g/ha
  Plant response rating, Morningglory: 0
[11]; Preemergence, Rate 125 g/ha
  Plant response rating, Morningglory: 0
[11]; [17]
  Morningglory plant response rating: 4
[11]; [18]
  Morningglory plant response rating: 4
[11]; [19]
  Morningglory plant response rating: 7
[11]; [20]
  Morningglory plant response rating: 10
[12]; [16]
  Rape plant response rating: 0
[12]; Preemergence, Rate 62 g/ha
  Plant response rating, Rape: 0
[12]; Preemergence, Rate 125 g/ha
  Plant response rating, Rape: 0
[12]; [17]
  Rape plant response rating: 1
[12]; [18]
  Rape plant response rating: 4
[12]; [19]
  Rape plant response rating: 0
[12]; [20]
  Rape plant response rating: 0
[13]; [16]
  Cocklebur plant response rating: 0
[13]; [21]
  Cocklebur plant response rating: 0
[13]; [22]
  Plant response rating, Cocklebur: 0
[13]; [23]
  Plant response rating, Cocklebur: 0
[13]; [17]
  Cocklebur plant response rating: 0
[13]; [19]
  Cocklebur plant response rating: 0
[13]; [20]
  Cocklebur plant response rating: 0
[14]; [16]
  Wheat plant response rating: 0
[14]; Preemergence, Rate 62 g/ha
  Plant response rating, Wheat: 0
[14]; Preemergence, Rate 125 g/ha
  Plant response rating, Wheat: 0
[14]; [17]
  Wheat plant response rating: 3
[14]; [18]
  Wheat plant response rating: 7
[14]; [19]
  Wheat plant response rating: 0
[14]; [20]
  Wheat plant response rating: 0
[15]; [16]
  Blackgrass plant response rating: 4
[15]; [21]
  Blackgrass plant response rating: 7
[15]; [22]
  Plant response rating, Blackgrass: 2
[15]; [23]
  Plant response rating, Blackgrass: 6
[15]; [17]
  Blackgrass plant response rating: 8
[15]; [18]
  Blackgrass plant response rating: 9
[15]; [19]
  Blackgrass plant response rating: 0
[15]; [20]
  Blackgrass plant response rating: 0
